# In patent US6620808B2, “Endocrine modulation with positive modulators of AMPA type glutamate receptors” (The Regents of the University of California, priority 1997, dated 2003):
# System: Sections of the hypothalamus containing the arcuate nucleus
# Test: release of GHRH from hypothalamic explants in static culture
# Assay type: cell-based, rats
# Details: GR87 at 100 μm
# From the text: The arcuate nucleus of the hypothalamus contains the majority of cells that synthesize GHRH and secrete the releasing factor into the anterior pituitary. Sections of the hypothalamus containing the arcuate nucleus were explanted from postnatal day 10-12 rats and maintained in static culture. Once established, these cultures were used to test the prediction that positive, allosteric modulators of AMPA type glutamate receptors will increase the release of GHRH from the hypothalamus into the culture medium. Explants were exposed to GR87 at 100 μm for four hours on some days and to vehicle for the same period on other days. Concentrates of the media were prepared following the exposure periods of GHRH assayed using a commercially available kit. Using a within culture design, i.e. drug vs. vehicle in the same tissue well, provided a control for differences in tissue thickness and the extent to which the arcuate was contained within the explants. As shown, the amount of GHRH in the media was about threefold greater after four hours of treatment with ampakine than it was after an equivalent period of vehicle application. This effect was in the predicted direction and was statistically significant (p=0.011).
# A single experiment was conducted to test if prolonged administration of GR87 at 100 μm would affect GHRH secretion. […]
smiles,measurement,setting,value
O=C(c1ccc2c(c1)OCCO2)N1CCCCC1 [GR87],media level of GHRH,"24 hours, group of 12 explants (controls 18 ng/400 μl)",47 ng/400 μl
same,amount of GHRH in the media relative to vehicle application,"four hours, within-culture drug vs vehicle, p=0.011",about threefold
